≈ marks a conversion by molar mass, not a printed value.
How the values were obtained:
[1] = target: Bromodomain-containing protein 2 (Homo sapiens, UniProt P25440, Y386A)
[2] = Intrinsic clearance in Beagle dog hepatocytes assessed per g tissue at 0.5 uM measured up to 120 mins by LC-MS/MS analysis; type: ADME, cell-based, Canis lupus familiaris, Hepatocyte; conditions: 2 h
in vitro = conditions: PAMPA, pH 7.4
Blood = test: Inhibition of LPS-induced MCP1 production in human whole blood preincubated for 30 mins followed by LPS addition measured after 24 hrs by immunoassay; type: functional, tissue-based
Cytochrome P450 3A4 = Cytochrome P450 3A4 (Homo sapiens, UniProt P08684); test: Metabolism-dependent inhibition of CYP3A4 (unknown origin); type: ADME
[3] = Intrinsic clearance in Wistar Han rat hepatocytes assessed per g tissue at 0.5 uM measured up to 60 mins by LC-MS/MS analysis; type: ADME, cell-based, Hepatocyte; conditions: 1 h, time <=45 min
[4] = target: Bromodomain-containing protein 3 (Homo sapiens, UniProt Q15059, Y73A); test: Displacement of Alexa Fluor 647 labelled ligand from 6His-Thr tagged BRD3 BD2/BD1 Y73A mutant (1 to 435 residues) (unknown origin) measured after 30 mins by TR-FRET assay
[5] = Intrinsic clearance in human hepatocytes assessed per g tissue at 0.5 uM measured up to 60 mins by LC-MS/MS analysis; type: ADME, cell-based, Hepatocyte; conditions: 1 h, time <=45 min
[6] = Oral bioavailability in Wistar Han rat at 3 mg/kg by LC-MS/MS analysis; type: ADME, organism-based; conditions: in vivo
[7] = Fraction unbound in human blood measured after 4 hrs by LC-MS/MS analysis; type: ADME, tissue-based
[8] = Volume of distribution at steady state in Beagle dog at 0.5 mg/kg, iv administered as 1 hr infusion on day 1 and day 7 to achieve a target dose of 1 mg/kg by LC-MS/MS analysis; type: ADME, organism-based, Canis lupus familiaris; conditions: in vivo, dose 0.5-1 mg/kg, time 7 day, read-out: Vdss
[9] = Fraction unbound in Beagle dog blood measured after 4 hrs by LC-MS/MS analysis; type: ADME, tissue-based, Canis lupus familiaris
[10] = target: Bromodomain testis-specific protein (Homo sapiens, UniProt Q58F21, Y66A); test: Displacement of Alexa Fluor 647 labelled ligand from 6His-Thr tagged BRDT BD2/BD1 Y66A mutant (1 to 397 residues) (unknown origin) measured after 30 mins by TR-FRET assay
[11] = Clearance in Wistar Han rat at 1 mg/kg, iv administered as 1 hr infusion or 3 mg/kg, po administered via gavage by LC-MS/MS analysis relative to liver blood flow; type: ADME, organism-based; conditions: in vivo
[12] = Half life in Beagle dog at 0.5 mg/kg, iv administered as 1 hr infusion on day 1 and day 7 to achieve a target dose of 1 mg/kg by LC-MS/MS analysis; type: ADME, organism-based, Canis lupus familiaris; conditions: in vivo, dose 0.5-1 mg/kg, time 7 day
physchem = conditions: phosphate buffered saline, pH 7.4
[13] = Oral bioavailability in Beagle dog; type: ADME, organism-based, Canis lupus familiaris; conditions: in vivo
[14] = target: Bromodomain-containing protein 3 (Homo sapiens, UniProt Q15059, Y348A); test: Displacement of Alexa Fluor 647 labelled ligand from 6His-Thr tagged BRD3 BD1/BD2 Y348A mutant (1 to 435 residues) (unknown origin) measured after 30 mins by TR-FRET assay
[15] = Clearance in Beagle dog at 0.5 mg/kg, iv administered as 1 hr infusion on day 1 and day 7 to achieve a target dose of 1 mg/kg by LC-MS/MS analysis; type: ADME, organism-based, Canis lupus familiaris; conditions: in vivo, dose 0.5-1 mg/kg, time 7 day
[16] = Volume of distribution at steady state in Wistar Han rat at 1 mg/kg, iv administered as 1 hr infusion or 3 mg/kg, po administered via gavage by LC-MS/MS analysis; type: ADME, organism-based; conditions: in vivo, read-out: Vdss
[17] = Clearance in Beagle dog at 0.5 mg/kg, iv administered as 1 hr infusion on day 1 and day 7 to achieve a target dose of 1 mg/kg by LC-MS/MS analysis relative to liver blood flow; type: ADME, organism-based, Canis lupus familiaris; conditions: in vivo, 168 h, dose 0.5-1 mg/kg, time 7 day
[18] = target: Bromodomain-containing protein 2 (Homo sapiens, UniProt P25440, Y113A); test: Displacement of Alexa Fluor 647 labelled ligand from 6His-Thr tagged BRD2 BD2/BD1 Y113A mutant (1 to 473 residues) (unknown origin) measured after 30 mins by TR-FRET assay
[19] = Half life in Wistar Han rat at 1 mg/kg, iv administered as 1 hr infusion or 3 mg/kg, po administered via gavage by LC-MS/MS analysis; type: ADME, organism-based; conditions: in vivo
Albumin = Albumin (Homo sapiens, UniProt P02768); test: Binding affinity to HSA relative to control; type: ADME; conditions: isolated protein
[20] = Fraction unbound in Wistar Han rat blood measured after 4 hrs by LC-MS/MS analysis; type: ADME, tissue-based
[21] = Solubility of the compound in pH 6.5 FaSSIF at 125 ug/ml measured after 16 hrs by HPLC analysis; type: physicochemical; conditions: dose 125 µg/ml
[22] = Clearance in Wistar Han rat at 1 mg/kg, iv administered as 1 hr infusion or 3 mg/kg, po administered via gavage by LC-MS/MS analysis; type: ADME, organism-based; conditions: in vivo
[23] = buffer, pH 7.4

Bromodomain-containing protein 2 (Homo sapiens, UniProt P25440, Y113A), sequence (P25440 whole entry Y113A, the tested form may be a part): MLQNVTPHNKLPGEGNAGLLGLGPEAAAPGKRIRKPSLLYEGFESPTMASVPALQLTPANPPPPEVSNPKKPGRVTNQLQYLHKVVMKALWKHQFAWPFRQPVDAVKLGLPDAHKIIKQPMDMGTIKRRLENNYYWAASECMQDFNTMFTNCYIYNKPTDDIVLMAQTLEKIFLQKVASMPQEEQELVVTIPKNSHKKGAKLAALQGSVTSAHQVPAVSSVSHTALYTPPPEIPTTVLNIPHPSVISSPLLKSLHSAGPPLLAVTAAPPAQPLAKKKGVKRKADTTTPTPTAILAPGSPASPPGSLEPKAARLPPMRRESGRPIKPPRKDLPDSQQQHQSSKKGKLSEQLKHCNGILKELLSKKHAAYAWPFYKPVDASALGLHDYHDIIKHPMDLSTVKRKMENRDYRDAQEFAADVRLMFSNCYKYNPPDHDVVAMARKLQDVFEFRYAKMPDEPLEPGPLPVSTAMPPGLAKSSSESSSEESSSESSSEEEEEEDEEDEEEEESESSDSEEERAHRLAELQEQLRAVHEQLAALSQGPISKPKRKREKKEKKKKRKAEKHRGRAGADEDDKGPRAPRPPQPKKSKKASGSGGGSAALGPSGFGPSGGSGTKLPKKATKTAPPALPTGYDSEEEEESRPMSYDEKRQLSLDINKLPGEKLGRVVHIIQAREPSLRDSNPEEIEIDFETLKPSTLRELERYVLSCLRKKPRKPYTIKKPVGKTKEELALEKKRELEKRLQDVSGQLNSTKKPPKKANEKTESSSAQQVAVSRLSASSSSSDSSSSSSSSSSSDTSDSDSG
Cytochrome P450 3A4, sequence (P08684 whole entry): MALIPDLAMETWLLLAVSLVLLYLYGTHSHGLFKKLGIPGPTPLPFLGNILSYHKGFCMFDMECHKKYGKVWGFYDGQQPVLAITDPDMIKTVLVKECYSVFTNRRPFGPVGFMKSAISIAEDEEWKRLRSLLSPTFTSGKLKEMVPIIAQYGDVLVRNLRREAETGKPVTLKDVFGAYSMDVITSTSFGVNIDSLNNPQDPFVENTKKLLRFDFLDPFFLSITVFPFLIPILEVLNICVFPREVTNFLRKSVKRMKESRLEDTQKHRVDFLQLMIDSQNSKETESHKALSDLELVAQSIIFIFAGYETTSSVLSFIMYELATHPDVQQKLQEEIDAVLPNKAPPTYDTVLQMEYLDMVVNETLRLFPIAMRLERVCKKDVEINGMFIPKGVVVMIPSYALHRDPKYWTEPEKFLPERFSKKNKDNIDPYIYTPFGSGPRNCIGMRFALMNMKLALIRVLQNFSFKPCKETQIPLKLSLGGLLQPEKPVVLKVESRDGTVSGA
Bromodomain-containing protein 3 (Homo sapiens, UniProt Q15059, Y73A), sequence (Q15059 2-726 Y73A limits assumed): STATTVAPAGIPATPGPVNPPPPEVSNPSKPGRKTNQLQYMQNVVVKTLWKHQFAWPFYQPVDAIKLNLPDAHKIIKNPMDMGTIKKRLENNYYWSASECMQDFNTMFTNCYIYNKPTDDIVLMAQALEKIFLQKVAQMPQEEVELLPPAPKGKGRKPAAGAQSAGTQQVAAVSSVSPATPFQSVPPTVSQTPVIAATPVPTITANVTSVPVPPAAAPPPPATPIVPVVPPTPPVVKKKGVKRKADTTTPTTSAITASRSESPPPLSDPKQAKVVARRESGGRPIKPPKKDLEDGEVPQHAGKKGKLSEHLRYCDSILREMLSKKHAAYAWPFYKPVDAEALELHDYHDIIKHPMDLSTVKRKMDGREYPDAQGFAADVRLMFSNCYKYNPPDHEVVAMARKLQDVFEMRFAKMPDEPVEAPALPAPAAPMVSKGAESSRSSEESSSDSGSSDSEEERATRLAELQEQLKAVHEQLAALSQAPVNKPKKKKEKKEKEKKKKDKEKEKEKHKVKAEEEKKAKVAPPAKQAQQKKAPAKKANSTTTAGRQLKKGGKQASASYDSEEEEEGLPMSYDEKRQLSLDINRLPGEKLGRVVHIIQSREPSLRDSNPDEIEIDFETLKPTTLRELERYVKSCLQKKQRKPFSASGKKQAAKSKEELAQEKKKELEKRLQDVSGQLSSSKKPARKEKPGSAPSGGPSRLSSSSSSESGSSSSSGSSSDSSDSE
Albumin, sequence (P02768 whole entry): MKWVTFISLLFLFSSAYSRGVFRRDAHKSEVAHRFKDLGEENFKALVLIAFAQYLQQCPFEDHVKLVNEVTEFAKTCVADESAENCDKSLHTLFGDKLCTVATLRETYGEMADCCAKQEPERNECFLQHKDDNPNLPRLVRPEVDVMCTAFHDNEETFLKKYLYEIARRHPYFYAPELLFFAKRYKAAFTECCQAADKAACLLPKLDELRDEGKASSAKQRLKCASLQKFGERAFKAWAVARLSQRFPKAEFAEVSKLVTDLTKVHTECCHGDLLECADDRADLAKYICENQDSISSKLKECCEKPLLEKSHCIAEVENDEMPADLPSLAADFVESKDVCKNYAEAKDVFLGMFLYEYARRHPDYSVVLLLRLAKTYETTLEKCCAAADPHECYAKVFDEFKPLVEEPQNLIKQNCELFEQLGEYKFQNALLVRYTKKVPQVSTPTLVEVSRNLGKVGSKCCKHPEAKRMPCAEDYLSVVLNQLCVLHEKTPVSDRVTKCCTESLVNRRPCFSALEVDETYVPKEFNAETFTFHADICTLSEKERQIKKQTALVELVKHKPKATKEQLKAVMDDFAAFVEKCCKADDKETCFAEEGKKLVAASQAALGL
Bromodomain-containing protein 2 (Homo sapiens, UniProt P25440, Y386A), sequence (P25440 whole entry Y386A): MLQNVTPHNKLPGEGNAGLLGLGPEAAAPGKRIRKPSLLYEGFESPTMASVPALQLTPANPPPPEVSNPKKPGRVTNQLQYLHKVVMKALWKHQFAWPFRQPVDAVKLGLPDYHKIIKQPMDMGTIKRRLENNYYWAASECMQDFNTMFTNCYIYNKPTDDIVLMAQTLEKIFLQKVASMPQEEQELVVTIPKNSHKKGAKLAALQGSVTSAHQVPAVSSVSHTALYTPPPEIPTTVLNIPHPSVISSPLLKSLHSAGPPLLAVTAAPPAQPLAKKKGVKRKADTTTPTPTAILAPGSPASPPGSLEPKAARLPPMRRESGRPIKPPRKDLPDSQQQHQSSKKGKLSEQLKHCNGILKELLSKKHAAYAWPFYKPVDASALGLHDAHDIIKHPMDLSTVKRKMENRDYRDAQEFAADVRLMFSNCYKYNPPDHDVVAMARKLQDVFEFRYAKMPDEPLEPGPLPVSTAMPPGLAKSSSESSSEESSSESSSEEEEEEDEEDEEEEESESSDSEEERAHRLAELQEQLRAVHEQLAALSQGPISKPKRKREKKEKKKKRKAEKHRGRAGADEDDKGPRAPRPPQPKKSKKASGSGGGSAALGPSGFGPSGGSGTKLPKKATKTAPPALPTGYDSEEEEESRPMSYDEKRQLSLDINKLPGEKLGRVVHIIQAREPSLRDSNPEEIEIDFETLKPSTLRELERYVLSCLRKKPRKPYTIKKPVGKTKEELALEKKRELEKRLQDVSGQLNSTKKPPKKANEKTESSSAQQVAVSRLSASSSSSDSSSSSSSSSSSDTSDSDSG
Bromodomain-containing protein 3 (Homo sapiens, UniProt Q15059, Y348A), sequence (Q15059 2-726 Y348A limits assumed): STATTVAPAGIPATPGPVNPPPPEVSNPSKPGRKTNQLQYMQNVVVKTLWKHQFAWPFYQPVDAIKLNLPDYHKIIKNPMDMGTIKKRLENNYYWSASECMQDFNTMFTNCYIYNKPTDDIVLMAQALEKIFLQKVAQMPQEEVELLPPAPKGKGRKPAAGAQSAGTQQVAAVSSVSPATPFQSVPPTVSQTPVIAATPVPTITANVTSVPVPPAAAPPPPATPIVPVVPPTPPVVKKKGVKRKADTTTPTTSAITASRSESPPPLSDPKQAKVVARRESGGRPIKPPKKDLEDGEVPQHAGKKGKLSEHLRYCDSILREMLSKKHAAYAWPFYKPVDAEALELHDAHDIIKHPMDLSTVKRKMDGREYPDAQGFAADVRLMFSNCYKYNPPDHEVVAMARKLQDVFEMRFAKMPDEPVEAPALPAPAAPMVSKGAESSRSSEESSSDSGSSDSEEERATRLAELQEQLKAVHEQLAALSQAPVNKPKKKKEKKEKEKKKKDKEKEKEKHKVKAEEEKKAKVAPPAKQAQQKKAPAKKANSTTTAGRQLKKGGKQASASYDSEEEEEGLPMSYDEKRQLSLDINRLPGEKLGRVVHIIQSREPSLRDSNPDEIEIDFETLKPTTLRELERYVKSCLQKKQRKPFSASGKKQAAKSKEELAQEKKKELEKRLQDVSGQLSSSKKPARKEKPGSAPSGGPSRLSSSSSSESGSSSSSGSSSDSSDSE

IC50 [1]: 10 µM
CLH [2]: < 1.26 mL/min
Papp (in vitro): 1.6 ×10⁻⁶ cm/s
IC50 (Blood): 0.0316 µM
IC50 (Cytochrome P450 3A4): > 39.8 µM
CLH [3]: < 0.8 mL/min
IC50 [4]: 0.1 µM
CLH [5]: < 0.45 mL/min
bioavailability [6]: 31%
fraction unbound at 4 h [7]: 0.32
Vd [8]: 0.91 L/kg
fraction unbound at 4 h [9]: 0.33
IC50 [10]: 0.2 µM
CL [11]: 46%
half-life [12]: 42 min
solubility kinetic (physchem): 91 µg/mL (≈ 220 µM)
bioavailability [13]: 66%
IC50 [14]: 39.8 µM
clearance [15]: 20 mL/min/kg
Vd [16]: 0.91 L/kg
CL [17]: 36%
IC50 [18]: 0.251 µM
half-life [19]: 30 min
Activity (Albumin): 47%
fraction unbound at 4 h [20]: 0.44
solubility at 16 h [21]: 996 µg/mL (≈ 2400 µM)
clearance [22]: 36 mL/min/kg
CHI [23]: 2.8
Compound: CC(=O)Nc1c(F)cc(C(=O)N[C@H]2CC[C@H](O)CC2)cc1O[C@@H](C)c1ccccc1 [GSK046]
